US8207156B2, “Substituted pyrazoline compounds, their preparation and use as medicaments” (Laboratorios Del Dr. Esteve, S.A., priority 2005, dated 2012)
Counter-ions that a name gives are not always drawn.

Biological target: T1, CB1 receptor (UniProt P20272)
T1 construct: other: compound at 10^−7 M; radioligand [3H]-CP55940; other: compound at 10^−8 M
Experiment: In-vitro determination of affinity to CB1/CB2-receptors (radioligand [3H]-CP55940 binding)
Conditions: for Inhibition [%], 10^−7 M: compound at 10^−7 M; for Inhibition [%], 10^−8 M: compound at 10^−8 M
Protocol: The in-vitro determination of the affinity of the inventive substituted pyrazoline compounds to CB1/CB2-Rezeptors is carried out as described in the publication of Ruth A. Ross, Heather C. Brockie et al., “Agonist-inverse agonist characterization at CB1 and CB2 cannabinoid receptors of L-759633, L759656 and AM630”, British Journal of Pharmacology, 126, 665-672, (1999), whereby the transfected human CB1 and CB2 receptors of Receptor Biology, Inc. are used. The radioligand used for both receptors is [^3H]-CP55940. The respective parts of the description is hereby incorporated by reference and forms part of the present disclosure.
Binding affinity to CB1 receptor was evaluated according to a modification of the method described by Govaerts et al., Eur J Pharmac Sci 23, 233-243 (2004). The respective parts of the description is hereby incorporated by reference and forms part of the present disclosure.
Briefly, cerebellum from male wistar rats (250-300 g) were carefully dissected on ice and homogenates were prepared with Potter-Helveheim in a cold 50 mM Tris-HCl solution containing 5 mM MgCl2, 1 mM EDTA and 0.25 M sucrose, pH 7.4. The suspension was centrifuged at 1,000×g for 5 minutes. The supernatants were collected and centrifuged 50,000×g for 15 minutes. The resulting pellets were then resuspended in Tris-HCl buffer without sucrose, homogenized and incubated for 15 min at 37° C. in an orbital shaker bath and centrifuged again at 50,000×g for 15 min. Pellets were weighted, resuspended in Tris-HCl buffer without sucrose, homogenized with Ultraturrax at 13,500 rpm for 3×5 seconds and alicuoted in 0.9 ml volumes in Eppendorf tubes. Alicuotes were centrifuged at 20,800×g for 5 minutes, supernatants discarded and pellets were frozen at −80° C. until use. Total protein concentration was determined using the Bio-Rad Lowry method based kit. Competitive binding experiments were performed in presence of 1 nM [^3H]-CP 55,940 in siliconized glass tubes containing 100 μg protein/tube resuspended in 1 ml final volume of 50 mM Tris-HCl, 5 mM MgCl2, 1 mM EDTA, 0.5% (w/v) bovine serum albumin, pH 7.4. Compounds were present at various concentrations and the non specific binding was determined in the presence of 10 μM HU-210. After 1 hour incubation at 30° C., the suspension was rapidly filtered through 0.5% PEI pre-treated GF/B fiber filters on a 96-well harvester and washed 3 times with 3 ml ice-cold binding buffer without bovine serum albumin. Radioactivity on filters was measured with Wallac Winspectral 1414 counter by liquid scintillation in 6 ml Ecoscint H (National Diagnostics, U.K.). Assays were made in triplicates.
Binding data were analyzed by non-linear regression with the software GraphPad Prism Version 3.03.

| Inhibition [%], 10^−7 M [%] | Inhibition [%], 10^−8 M [%] | Structure (SMILES) |
| --- | --- | --- |
| 19.6 | −10.2 | CCCCNC(=O)C1=NN(c2ccc(Cl)cc2Cl)C(c2ccc(Cl)cc2)C1 (centres unmarked) [Example 72, 5-(4-Chloro-phenyl)-1-(2,4-dichloro-phenyl)-4,5-dihydro-1H-pyrazole-3-carboxylic acid butylamide] |
| −18.9 | 15.7 | CN(C)CCCNC(=O)C1=NN(c2ccc(Cl)cc2Cl)C(c2ccc(Cl)cc2)C1 (centres unmarked) [Example 73, 5-(4-Chloro-phenyl)-1-(2,4-dichloro-phenyl)-4,5-dihydro-1H-pyrazole-3-carboxylic acid (3-dimethylamino-propyl)-amide] |
| 7.8 | 7.4 | COc1ccc(C2CC(C(=O)O)=NN2c2ccc(Cl)cc2Cl)cc1 (centres unmarked) [Example 127, 1-(2,4-Dichloro-phenyl)-5-(4-methoxy-phenyl)-4,5-dihydro-1H-pyrazole-3-carboxylic acid] |
| 80.3 | 56.1 | COc1ccc(C2CC(C(=O)NN3CCCCCCC3)=NN2c2ccc(Cl)cc2Cl)cc1 (centres unmarked) [Example 148, 5-(4-methoxy-phenyl)-1-(2,4-dichloro-phenyl)-4,5-dihydro-1H-pyrazole-3-carboxylic acid azocan-1-ylamide] |
| 9.3 | 4.7 | O=C(O)C1=NN(c2ccc(Cl)cc2Cl)C(c2ccc(O)cc2)C1 (centres unmarked) [Example 180, 1-(2,4-Dichloro-phenyl)-5-(4-hydroxy-phenyl)-4,5-dihydro-1H-pyrazole-3-carboxylic acid] |
| 31.7 | 18.8 | Cl.O=C(NN1CCc2ccccc21)C1=NN(c2ccc(Cl)cc2Cl)[C@H](c2ccc(Cl)cc2)C1 [Example 182, (S)-5-(4-Chloro-phenyl)-1-(2,4-dichloro-phenyl)-4,5-dihydro-1H-pyrazole-3-carboxylic acid (2,3-dihydro-indol-1-yl)-amide hydrochloride] |
| 31.9 | 3.2 | Cl.O=C(NN1CCCCCC1)C1=NN(c2ccc(Cl)cc2Cl)[C@H](c2ccc(Cl)cc2)C1 [Example 183, (S)-5-(4-Chloro-phenyl)-1-(2,4-dichloro-phenyl)-4,5-dihydro-1H-pyrazole-3-carboxylic acid azepan-1-ylamide hydrochloride] |
| 24.8 | 5.7 | O=C(NN1CC2CCCC2C1)C1=NN(c2ccc(Cl)cc2Cl)[C@H](c2ccc(Cl)cc2)C1 (stereo partly drawn) [Example 184, (S)-5-(4-Chloro-phenyl)-1-(2,4-dichloro-phenyl)-4,5-dihydro-1H-pyrazole-3-carboxylic acid (hexahydro-cyclopenta[c]pyrrol-2-yl)-amide hydrochloride] |
| 34.1 | −11.6 | O=C(NN1CCCCCC1)C1=NN(c2ccc(Cl)cc2Cl)[C@H](c2ccc(Cl)cc2)C1 [Example 185, (S)-5-(4-Chloro-phenyl)-1-(2,4-dichloro-phenyl)-4,5-dihydro-1H-pyrazole-3-carboxylic acid azepan-1-ylamide] |
| 28.1 | 3.2 | O=C(NC1CCCCCC1)C1=NN(c2ccc(Cl)cc2Cl)[C@H](c2ccc(Cl)cc2)C1 [Example 186, (S)-5-(4-Chloro-phenyl)-1-(2,4-dichloro-phenyl)-4,5-dihydro-1H-pyrazole-3-carboxylic acid cycloheptylamide] |
| 5.8 | 4.7 | CN1CCN(C(=O)C2=NN(c3ccc(Cl)cc3Cl)C(c3ccc(Cl)cc3)C2)CC1.Cl (centres unmarked) [Example 195, [5-(4-Chloro-phenyl)-1-(2,4-dichloro-phenyl)-4,5-dihydro-1H-pyrazole-3-yl]-(4-methyl-piperazin-1-yl)-methanone hydrochloride] |

The remaining lines, values behind:

| Structure (SMILES) | Inhibition [%], 10^−7 M [%] | Inhibition [%], 10^−8 M [%] |
| --- | --- | --- |
| COC[C@H]1CCCN1NC(=O)C1=NN(c2ccc(Cl)cc2Cl)C(c2ccc(Cl)cc2)C1 (some centres unmarked) [Example 13, 5-(4-Chloro-phenyl)-1-(2,4-dichloro-phenyl)-4,5-dihydro-1H-pyrazole-3-carboxylic acid (2-methoxymethyl-pyrrolidin-1-yl)-amide] | 31.8 | 14.3 |
| O=C(NCCC1CCCC1)C1=NN(c2ccc(Cl)cc2Cl)C(c2ccc(Cl)cc2)C1 (centres unmarked) [Example 87, 5-(4-Chloro-phenyl)-1-(2,4-dichloro-phenyl)-4,5-dihydro-1H-pyrazole-3-carboxylic acid (2-cyclopentyl-ethyl)-amide] | 15.2 | −2.4 |
| COc1ccc(C2CC(C(=O)NC3CCCCCC3)=NN2c2ccc(Cl)cc2Cl)cc1 (centres unmarked) [Example 132, 5-(4-methoxyphenyl)-1-(2,4-dichloro-phenyl)-4,5-dihydro-1H-pyrazole-3-carboxylic acid cycloheptylamide] | 37.8 | 18.2 |
| Cl.O=C(NN1CCCCCCC1)C1=NN(c2ccc(Cl)cc2Cl)C(c2ccc(Cl)cc2)C1 (centres unmarked) [Example 145, 5-(4-Chloro-phenyl)-1-(2,4-dichloro-phenyl)-4,5-dihydro-1H-pyrazole-3-carboxylic acid azocan-1-ylamide hydrochloride] | 57.6 | 12.3 |
| Cl.O=C(NN1CCCCC1)C1=NN(c2ccc(Cl)cc2Cl)C(c2ccc(O)cc2)C1 (centres unmarked) [Example 172, 1-(2,4-Dichloro-phenyl)-5-(4-hydroxy-phenyl)-4,5-dihydro-1H-pyrazole-3-carboxylic acid piperidin-1-ylamide hydrochloride] | 1.4 | 5.6 |
| Cl.O=C(NN1CCCCCCC1)C1=NN(c2ccc(Cl)cc2Cl)[C@@H](c2ccc(Cl)cc2)C1 [Example 176, (R)-5-(4-Chloro-phenyl)-1-(2,4-dichloro-phenyl)-4,5-dihydro-1H-pyrazole-3-carboxylic acid azocan-1-ylamide hydrochloride] | 71.3 | 29.5 |
| Cl.O=C(NN1CCCCCCC1)C1=NN(c2ccc(Cl)cc2Cl)[C@H](c2ccc(Cl)cc2)C1 [Example 177, (S)-5-(4-Chloro-phenyl)-1-(2,4-dichloro-phenyl)-4,5-dihydro-1H-pyrazole-3-carboxylic acid azocan-1-ylamide hydrochloride] | 22.2 | −5.4 |
| Cl.O=C(NN1CCc2ccccc21)C1=NN(c2ccc(Cl)cc2Cl)C(c2ccc(F)cc2)C1 (centres unmarked) [Example 179, 1-(2,4-Dichloro-phenyl)-5-(4-fluoro-phenyl)-4,5-dihydro-1H-pyrazole-3-carboxylic acid (2,3-dihydro-indol-1-yl)-amide hydrochloride] | 33.9 | 11.5 |
